# Source: patent publication US12594339B2, “Lipid prodrugs of JAK inhibitors and uses thereof” (Seaport Therapeutics, Inc., priority 2019, dated 2026)
# Assay: Lymphatic transport assay in mesenteric lymph-duct cannulated rats
# Type: in vivo, rat
# Settings: marked with asterisk: analytical procedure without a hydrolysis step (intact lipid prodrug), intraduodenal infusion, anaesthetised mesenteric lymph-duct cannulated rats
# Protocol: In order to assess the lymphatic transport of disclosed lipid prodrugs in rats, the mesenteric lymph ducts of the rats used in this study were cannulated to allow continual collection of mesenteric lymph. Lipid formulations containing the compound of interest were then administered to the animals, lymph was collected, and drug concentrations in the lymph samples were quantified.
# Lipid-based formulations of the compounds of the invention or control compounds were prepared as previously described (Trevaskis, N. L. et al., Pharmaceutical Research, 2005, 22(11), 1863-1870, WO 2016/023082, and WO 2017/041139, hereby incorporated by reference).
# In brief, either 1 or 2 mg of test prodrug, 40 mg oleic acid and 25 mg Tween 80 were mixed in a glass vial and incubated at 37° C. for 12-18 h to equilibrate. An aqueous phase consisting of 5.6 ml phosphate buffered saline (PBS, pH 7.4) was subsequently added to the lipid phase (tofacitinib was dissolved in PBS for the preparation of tofacitinib-containing formulations) and the formulation emulsified by ultrasonication with a Misonix XL 2020 ultrasonic processor (Misonix, Farmingdale, NY, USA) equipped with a 3.2-mm microprobe tip running at 30% of the maximal amplitude of 240 μm and a frequency of 20 kHz for 2 min at room temperature. Doses for administering to more than one animal can be prepared in one batch by suitably increasing the quantities given above. Drug/prodrug concentrations in all formulations were verified using HPLC-MS.
# Male Sprague-Dawley (SD) rats were selected for the lymphatic transport studies. Rats (typically 240-320 g) were maintained on a standard diet and fasted overnight with free access to water prior to experiments.
# Anesthetized rats were placed on a heated pad at 37° C. and cannulas inserted into the duodenum (for formulation administration and rehydration), mesenteric lymph duct (for lymph collection), and carotid artery (in cases where blood collection was conducted). Post-surgery, rats were re-hydrated for 0.5 h via intraduodenal infusion of normal saline at 2.8 mL/h. The lipid formulations were infused into the duodenum at 2.8 mL/h for 2 h after which, normal saline was infused at 2.8 mL/h for the remainder of the experiment. Lymph was continuously collected for up to 8 h into pre-weighed Eppendorf tubes containing 10 μL of 1,000 IU/mL heparin. The collection tubes were changed hourly and lymph flow was measured gravimetrically. Aliquots of hourly lymph samples were stored at −20° C. prior to assay.
# For most compounds, drug concentration in lymph is expressed as total drug and includes free drug and drug associated with different glycerides. Lymph samples were first treated with a lipase or other appropriate conditions to liberate free active agent prior to measurement of active agent levels in the lymph. Treatment with a lipase or other hydrolysis conditions liberates free active agent from any corresponding re-esterified glycerides. Porcine pancreatic lipase is appropriate for this purpose. Alternatively, hydrolysis with 0.5 M NaOH may be used.
# For certain compounds, drug concentration was measured for the intact lipid prodrug specifically, without exposing the lymph samples to hydrolysis conditions.
# Transport of compounds into lymph during each hourly collection period was calculated from the product of the volume of lymph collected and the measured concentrations in lymph. For fluorescent or fluorescently-labelled compounds, the concentrations of total compound may be measured by fluorescence spectroscopy without hydrolysis.
# Table 5 summarizes lymphatic transport of total tofacitinib related compound (% of administered dose) following intraduodenal infusion to anaesthetised, mesenteric lymph-duct cannulated rats. Data are presented as mean±SD when n≥3 or mean± range when n=2. […]
row,Compound,Cumulative lymphatic transport % dose
1,"CCCCCCCCCCCCCCCC(=O)OCC(COC(=O)CCCCCCCCCCCCCCC)OC(=O)CC(C)CCCCCCC(=O)n1ccc2c(N(C)[C@H]3CN(C(=O)CC#N)CC[C@H]3C)ncnc21 (stereo partly drawn) [I-9, 2-((10-(4-(((3R,4R)-1-(2-cyanoacetyl)-4-methylpiperidin-3-yl)(methyl)amino)-7H-pyrrolo[2,3-d]pyrimidin-7-yl)-3-methyl-10-oxodecanoyl)oxy)propane-1,3-diyl dipalmitate]",B* (lymphatic transport assay result between 1% and 10% (1%-10%))
2,"CCCCCCCCCCCCCCCC(=O)OCC(COC(=O)CCCCCCCCCCCCCCC)OC(=O)CC(C)CCCCCCCCCCC(C)C(=O)n1ccc2c(N(C)[C@H]3CN(C(=O)CC#N)CC[C@H]3C)ncnc21 (stereo partly drawn) [I-39, 2-((15-(4-(((3R,4R)-1-(2-cyanoacetyl)-4-methylpiperidin-3-yl)(methyl)amino)-7H-pyrrolo[2,3-d]pyrimidin-7-yl)-3,14-dimethyl-15-oxopentadecanoyl)oxy)propane-1,3-diyl dipalmitate]",A* (lymphatic transport assay result of greater than 10% (>10%))

# Same assay, conditions: numeric value for parent drug, intraduodenal infusion, anaesthetised mesenteric lymph-duct cannulated rats
row,Compound,Cumulative lymphatic transport % dose [% dose]
1,"C[C@@H]1CCN(C(=O)CC#N)C[C@@H]1N(C)c1ncnc2[nH]ccc12 [Tofacitinib, tofacitinib, reference compound]",<0.3

# Same assay, conditions: numeric value for parent drug, intraduodenal infusion, anaesthetised mesenteric lymph-duct cannulated rats; listed as tofacitinib
row,Compound,Cumulative lymphatic transport % dose [% dose]
1,"C[C@@H]1CCN(C(=O)CC#N)C[C@@H]1N(C)c1ncnc2[nH]ccc12 [Tofacitinib, tofacitinib, reference compound]",< 0.3

# Same assay, conditions: total tofacitinib related compound (lymph hydrolysed before assay), intraduodenal infusion, anaesthetised mesenteric lymph-duct cannulated rats, lymph collected up to 8 h
row,Compound,Cumulative lymphatic transport % dose
1,CCCCCCCCCCCCCCCC(=O)OCC(COC(=O)CCCCCCCCCCCCCCC)OC(=O)CC(C)CCCCCC(=O)n1ccc2c(N(C)[C@H]3CN(C(=O)CC#N)CC[C@H]3C)ncnc21 (stereo partly drawn) [I-7],B (lymphatic transport assay result between 1% and 10% (1%-10%))
2,"CCCCCCCCCCCCCCCC(=O)OCC(COC(=O)CCCCCCCCCCCCCCC)OC(=O)CC(C)CCCCCCCCCCCC(=O)n1ccc2c(N(C)[C@H]3CN(C(=O)CC#N)CC[C@H]3C)ncnc21 (stereo partly drawn) [I-10, 2-((15-(4-(((3R,4R)-1-(2-cyanoacetyl)-4-methylpiperidin-3-yl)(methyl)amino)-7H-pyrrolo[2,3-d]pyrimidin-7-yl)-3-methyl-15-oxopentadecanoyl)oxy)propane-1,3-diyl dipalmitate]",B (lymphatic transport assay result between 1% and 10% (1%-10%))
3,"CCCCCCCCCCCCCCCC(=O)OCC(COC(=O)CCCCCCCCCCCCCCC)OC(=O)CC(C)CCCCCCC(C)CC(=O)n1ccc2c(N(C)[C@H]3CN(C(=O)CC#N)CC[C@H]3C)ncnc21 (stereo partly drawn) [I-13, 2-((12-(4-(((3R,4R)-1-(2-cyanoacetyl)-4-methylpiperidin-3-yl)(methyl)amino)-7H-pyrrolo[2,3-d]pyrimidin-7-yl)-3,10-dimethyl-12-oxododecanoyl)oxy)propane-1,3-diyl dipalmitate]",A (lymphatic transport assay result of greater than 10% (>10%))
4,"CCCCCCCCCCCCCCCC(=O)OCC(COC(=O)CCCCCCCCCCCCCCC)OC(=O)CC(C)CCCCCCC(=O)Oc1c(C)cc(COC(=O)n2ccc3c(N(C)[C@H]4CN(C(=O)CC#N)CC[C@H]4C)ncnc32)cc1C (stereo partly drawn) [I-14, 10-(1,3-bis(palmitoyloxy)propan-2-yl) 1-(4-(((4-(((3R,4R)-1-(2-cyanoacetyl)-4-methylpiperidin-3-yl)(methyl)amino)-7H-pyrrolo[2,3-d]pyrimidine-7-carbonyl)oxy)methyl)-2,6-dimethylphenyl) 8-methyldecanedioate]",B (lymphatic transport assay result between 1% and 10% (1%-10%))
5,"CCCCCCCCCCCCCCCC(=O)OCC(COC(=O)CCCCCCCCCCCCCCC)OC(=O)CC(C)CCCCCCCC(C)C(=O)Oc1c(C)cc(COC(=O)n2ccc3c(N(C)[C@H]4CN(C(=O)CC#N)CC[C@H]4C)ncnc32)cc1C (stereo partly drawn) [I-15, 12-(1,3-bis(palmitoyloxy)propan-2-yl) 1-(4-(((4-(((3R,4R)-1-(2-cyanoacetyl)-4-methylpiperidin-3-yl)(methyl)amino)-7H-pyrrolo[2,3-d]pyrimidine-7-carbonyl)oxy)methyl)-2,6-dimethylphenyl) 2,10-dimethyldodecanedioate]",A (lymphatic transport assay result of greater than 10% (>10%))
6,"CCCCCCCCCCCCCCCC(=O)OCC(COC(=O)CCCCCCCCCCCCCCC)OC(=O)CC(C)CCCCCCCCC(=O)Oc1c(C)cc(COC(=O)n2ccc3c(N(C)[C@H]4CN(C(=O)CC#N)CC[C@H]4C)ncnc32)cc1C (stereo partly drawn) [I-16, 1-(1,3-bis(palmitoyloxy)propan-2-yl) 12-(4-(((4-(((3R,4R)-1-(2-cyanoacetyl)-4-methylpiperidin-3-yl)(methyl)amino)-7H-pyrrolo[2,3-d]pyrimidine-7-carbonyl)oxy)methyl)-2,6-dimethylphenyl) 3-methyldodecanedioate]",A (lymphatic transport assay result of greater than 10% (>10%))
7,"CCCCCCCC/C=C\CCCCCCCC(=O)OCC(COC(=O)CCCCCCC/C=C\CCCCCCCC)OC(=O)CC(C)CCCCCCCCCC(C)CC(=O)n1ccc2c(N(C)[C@H]3CN(C(=O)CC#N)CC[C@H]3C)ncnc21 (stereo partly drawn) [I-33, 2-((15-(4-(((3R,4R)-1-(2-cyanoacetyl)-4-methylpiperidin-3-yl)(methyl)amino)-7H-pyrrolo[2,3-d]pyrimidin-7-yl)-3,13-dimethyl-15-oxopentadecanoyl)oxy)propane-1,3-diyl dioleate]",A (lymphatic transport assay result of greater than 10% (>10%))
8,"CCCCCCCCCCCCCCCC(=O)OCC(COC(=O)CCCCCCCCCCCCCCC)OC(=O)CC(C)CC(=O)OC(C)OC(=O)n1ccc2c(N(C)[C@H]3CN(C(=O)CC#N)CC[C@H]3C)ncnc21 (stereo partly drawn) [I-40, 1-(1,3-bis(palmitoyloxy)propan-2-yl) 5-(1-((4-(((3R,4R)-1-(2-cyanoacetyl)-4-methylpiperidin-3-yl)(methyl)amino)-7H-pyrrolo[2,3-d]pyrimidine-7-carbonyl)oxy)ethyl) 3-methylpentanedioate]",D (lymphatic transport assay result of less than 0.05% (<0.05%))
